In patent publication EP4763839A1 (Pamplona Therapeutics (Shenzhen) Co., Ltd., priority 2023, dated 2025) one finds DC50 and Dmax data, which are given here for 18 molecules.

Counter-ions that a name gives are not always drawn. Like-named read-outs stand apart in the source and are kept apart here.

This assay has as its target T1, IRAK4 (Homo sapiens, UniProt Q9NWZ3).
T1 sequence (Q9NWZ3 1-460): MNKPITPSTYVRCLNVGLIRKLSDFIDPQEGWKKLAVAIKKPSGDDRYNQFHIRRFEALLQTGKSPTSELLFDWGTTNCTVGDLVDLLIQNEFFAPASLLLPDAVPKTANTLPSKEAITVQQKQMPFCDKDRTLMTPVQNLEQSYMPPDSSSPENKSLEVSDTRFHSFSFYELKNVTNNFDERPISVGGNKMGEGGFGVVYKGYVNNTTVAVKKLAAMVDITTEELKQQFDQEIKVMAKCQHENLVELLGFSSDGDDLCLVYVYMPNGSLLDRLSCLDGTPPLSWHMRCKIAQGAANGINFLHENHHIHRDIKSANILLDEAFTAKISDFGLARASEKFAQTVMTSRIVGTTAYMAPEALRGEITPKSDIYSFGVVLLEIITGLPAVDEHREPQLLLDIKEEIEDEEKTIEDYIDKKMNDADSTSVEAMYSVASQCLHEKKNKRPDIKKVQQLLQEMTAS
Description: Degradation of IRAK4 in THP1 cells, Western blot. Further details: Degradation of IRAK4 in THP1 by compound; host or cells: THP-1. It is filed as cell-based. The gist of the method: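 Degradation rate derived from densitometry of IRAK4 bands versus DMSO-treated controls. Read-out: anti-IRAK4 immunoblot (10% gel, 40 μg total protein per lane, BCA-normalised) of lysates from THP1 cells incubated with compound for 24 h.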

The mark [1] stands for this setting: THP-1 cells, 24 hours of incubation, IRAK4 protein by Western blot, read-out: DC50.
[2] abbreviates: maximum degradation rate, THP-1 cells, 24 hours of incubation, read-out: Dmax.

One may read the DC50 as the concentration at which degradation of the target reaches its halfway point. The Dmax is the largest share of the target that was removed. Take `Cn1c(=O)n(C2CCC(=O)NC2=O)c2cccc(C#CCOC3CN(Cc4ccc(-n5cc(NC(=O)c6cccc(-c7ccn[nH]7)n6)c(S(N)(=O)=O)n5)cc4)C3)c21` (stereo not drawn) [Compound A351, N-(1-(4-((3-((3-(1-(2,6-dioxopiperidin-3-yl)-3-methyl-2-oxo-2,3-dihydro-1H-benzo[d]imidazol-4-yl)prop-2-yn-1-yl)oxy)azetidin-1-yl)methyl)phenyl)-3-sulfamoyl-1H-pyrazol-4-yl)-6-(1H-pyrazol-5-yl)picolinamide]: the DC50 under setting [1] fell in the range of 100 to 1000 nM. In addition, the Dmax under setting [2] lay within 40 to 60%.
Take `NC(=O)c1nn(-c2ccc(N3CCN(CCC4CCN(C(=O)c5ccc(F)c(N6CCC(=O)NC6=O)c5)CC4)CC3)cc2)cc1NC(=O)c1cccc(C(F)(F)F)n1` [Compound A402, N-(3-Carbamoyl-1-(4-(4-(2-(1-(3-(2,4-dioxotetrahydropyrimidin-1(2H)-yl)-4-fluorobenzoyl)piperidin-4-yl)ethyl)piperazin-1-yl)phenyl)-1H-pyrazol-4-yl)-6-(trifluoromethyl)picolinamide trifluoroacetate]: under setting [1], the DC50 is below 100 nM. In addition, under setting [2], the Dmax was above 60%.
As to `NC(=O)c1nn(-c2ccc(N3CCN(C(=O)C4CN(c5cc(F)c(C6CCC(=O)NC6=O)c(F)c5)C4)CC3)cc2)cc1NC(=O)c1cccc(C(F)(F)F)n1` (stereo not drawn) [Compound A411, N-(3-carbamoyl-1-(4-(4-(1-(4-(2,6-dioxopiperidin-3-yl)-3,5-difluorophenyl)azetidine-3-carbonyl)piperazin-1-yl)phenyl)-1H-pyrazol-4-yl)-6-(trifluoromethyl)picolinamide], the DC50 under setting [1] is below 100 nM. In addition, under setting [2], the Dmax is above 60%.
On the same counts, the results for `CC(C)(O)c1nn(-c2ccc(N3CCN(C4CCN(c5ccc(NC6CCC(=O)NC6=O)cc5F)CC4)CC3)cc2)cc1NC(=O)c1cncc(C#N)c1` (stereo not drawn) [Compound A389, 5-Cyano-N-(1-(4-(4-(1-(4-((2,6-dioxopiperidin-3-yl)amino)-2-fluorophenyl)piperidin-4-yl)piperazin-1-yl)phenyl)-3-(2-hydroxypropan-2-yl)-1H-pyrazol-4-yl)nicotinamide] are above 1000 nM and below 40%.
In the case of `NC(=O)c1nn(-c2ccc(N3CCN(C(=O)C4CC5(CCN(c6ccc(N7CCC(=O)NC7=O)cc6)CC5)C4)CC3)cc2)cc1NC(=O)c1cccc(C(F)(F)F)n1` [Compound A394, N-(3-Carbamoyl-1-(4-(4-(7-(4-(2,4-dioxotetrahydropyrimidin-1(2H)-yl)phenyl)-7-azaspiro[3.5]nonane-2-carbonyl)piperazin-1-yl)phenyl)-1H-pyrazol-4-yl)-6-(trifluoromethyl)picolinamide], under setting [1], the DC50 is 100 to 1000 nM. Moreover, the Dmax under setting [2] was in the range of 40 to 60%.
`N#Cc1ccnc(C(=O)Nc2cn(-c3ccc(N4CCN(C5CCN(c6ccc(NC7CCC(=O)NC7=O)cc6F)CC5)CC4)cc3)nc2C(N)=O)c1` (stereo not drawn) [Compound A387, N-(3-Carbamoyl-1-(4-(4-(1-(4-((2,6-Dioxopiperidin-3-yl)amino)-2-fluorophenyl)piperidin-4-yl)piperazin-1-yl)phenyl)-1H-pyrazol-4-yl)-4-cyanopicolinamide]: the DC50 under setting [1] was above 1000 nM. For the same molecule, the Dmax under setting [2] was below 40%.
As for `Cn1c(=O)n(C2CCC(=O)NC2=O)c2cccc(N3CCC(CN4CCN(c5ccc(-n6cc(NC(=O)c7cccc(C(F)(F)F)n7)c(C(N)=O)n6)cc5)CC4)C(F)(F)C3)c21` (stereo not drawn) [Compound A298, N-(3-Carbamoyl-1-(4-(4-((1-(1-(2,6-dioxopiperidin-3-yl)-3-methyl-2-oxo-2,3-dihydro-1H-benzo[d]imidazol-4-yl)-3,3-difluoropiperidin-4-yl)methyl)piperazin-1-yl)phenyl)-1H-pyrazol-4-yl)-6-(trifluoromethyl)picolinamide], the half-maximal degradation concentration (DC50) under setting [1] is below 100 nM. Moreover, the greatest degradation seen (Dmax) under setting [2] is above 60%.
On the same counts, the results for `Cn1c(=O)n(C2CCC(=O)NC2=O)c2cccc(C#CCOC3CCN(Cc4ccc(-n5cc(NC(=O)c6cccc(-c7ccn[nH]7)n6)c(S(N)(=O)=O)n5)cc4)CC3)c21` (stereo not drawn) [Compound A340, N-(1-(4-((4-((3-(1-(2,6-Dioxopiperidin-3-yl)-3-methyl-2-oxo-2,3-dihydro-1H-benzo[d]imidazol-4-yl)prop-2-yn-1-yl)oxy)piperidin-1-yl)methyl)phenyl)-3-sulfamoyl-1H-pyrazol-4-yl)-6-(1H-pyrazol-5-yl)picolinamide] are below 100 nM and above 60%.
Consider `Cn1c(=O)n(C2CCC(=O)NC2=O)c2cccc(N3CCC4(CC3)CN(Cc3ccc(-n5cc(NC(=O)c6cccc(C(F)(F)F)n6)c(C(N)=O)n5)cc3)C4)c21` (stereo not drawn) [Compound A319, N-(3-carbamoyl-1-(4-((7-(1-(2,6-dioxopiperidin-3-yl)-3-methyl-2-oxo-2,3-dihydro-1H-benzo [d]imidazol-4-yl)-2,7-diazaspiro[3.5]nonan-2-yl)methyl)phenyl)-1H-pyrazol-4-yl)-6-(trifluoromethyl)picolinamide], for which the DC50 under setting [1] lay in the range of 100 to 1000 nM. Under setting [2], the Dmax lay in the range of 40 to 60%.
As for `Cn1c(=O)n(C2CCC(=O)NC2=O)c2cccc(N3CCC(C(=O)N4CCN(c5ccc(-n6cc(NC(=O)c7cccc(C(F)(F)F)n7)c(C(N)=O)n6)cc5)CC4)CC3)c21` (stereo not drawn) [Compound A368, N-(3-Carbamoyl-1-(4-(4-(1-(1-(2,6-dioxopiperidin-3-yl)-3-methyl-2-oxo-2,3-dihydro-1H-benzo[d]imidazol-4-yl)piperidine-4-carbonyl)piperazin-1-yl)phenyl)-1H-pyrazol-4-yl)-6-(trifluoromethyl)picolinamide], the DC50 under setting [1] is below 100 nM. For the same molecule, under setting [2], the Dmax was above 60%.
Take `Cn1c(=O)n(C2CCC(=O)NC2=O)c2ccc(N3CCC(CN4CCN(c5ccc(-n6cc(NC(=O)c7cccc(-c8ccn[nH]8)n7)c(S(N)(=O)=O)n6)cc5)CC4)CC3)cc21` (stereo not drawn) [Compound A326, N-[3-(aminodioxyylidene-λ6-thio)-1-{4-[4-({1-[1-(2,6-dioxopiperidin-3-yl)-3-methyl-2-oxobenzo[d]imidazol-5-yl]piperidin-4-yl}methyl)piperazin-1-yl]phenyl}pyrazol-4-yl]-6-(2H-pyrazol-3-yl)pyridine-2-carboxamide]: under setting [1], the DC50 was below 100 nM. Further, the Dmax under setting [2] was above 60%.
For `NC(=O)c1nn(-c2ccc(COC3CC4(CCN(CC5CCN(c6ccc(NC7CCC(=O)NC7=O)cc6F)CC5)CC4)C3)cc2)cc1NC(=O)c1cccc(C(F)(F)F)n1` (stereo not drawn) [Compound A317, N-(3-Carbamoyl-1-(4-(((7-((1-(4-((2,6-dioxopiperidin-3-yl)amino)-2-fluorophenyl)piperidin-4-yl)methyl)-7-azaspiro[3.5]nonan-2-yl)oxy)methyl)phenyl)-1H-pyrazol-4-yl)-6-(trifluoromethyl)picolinamide] the same measures were below 100 nM and above 60%.
As for `NC(=O)c1nn(-c2ccc(N3CCN(CC4CC5(CCN(c6ccc(N7CCC(=O)NC7=O)cc6)CC5)C4)CC3)cc2)cc1NC(=O)c1cccc(C(F)(F)F)n1` [Compound A392, N-(3-Carbamoyl-1-(4-(4-((7-(4-(2,4-dioxotetrahydropyrimidin-1(2H)-yl)phenyl)-7-azaspiro[3.5]nonan-2-yl)methyl)piperazin-1-yl)phenyl)-1H-pyrazol-4-yl)-6-(trifluoromethyl)picolinamide], the DC50 under setting [1] is 100 to 1000 nM. The Dmax under setting [2] was 40 to 60%.
`NC(=O)c1nn(-c2ccc(N3CCN(C4CCN(c5ccc(C(=O)NC6CCC(=O)NC6=O)cn5)CC4)CC3)cc2)cc1NC(=O)c1cccc(C(F)(F)F)n1` (stereo not drawn) [Compound A433, N-(3-Carbamoyl-1-(4-(4-(1-(5-((2,6-dioxopiperidin-3-yl)carbamoyl)pyridin-2-yl)piperidin-4-yl)piperazin-1-yl)phenyl)-1H-pyrazol-4-yl)-6-(trifluoromethyl)picolinamide]: the DC50 under setting [1] is 100 to 1000 nM. For the same molecule, under setting [2], the Dmax is 40 to 60%.
On the same counts, the results for `NC(=O)c1nn(-c2ccc(N3CCN(C(=O)C4CN(c5ccc(N6CCC(=O)NC6=O)cc5)C4)CC3)cc2)cc1NC(=O)c1cccc(C(F)(F)F)n1` [Compound A409, N-(3-Carbamoyl-1-(4-(4-(1-(4-(2,4-dioxotetrahydropyrimidin-1(2H)-yl)phenyl)azetidine-3-carbonyl)piperazin-1-yl)phenyl)-1H-pyrazol-4-yl)-6-(trifluoromethyl)picolinamide] are below 100 nM and above 60%.
With `Cn1c(=O)n(C2CCC(=O)NC2=O)c2cccc(NCCN3CC4CN(C(=O)c5ccc(-n6cc(NC(=O)c7cccc(-c8ccn[nH]8)n7)c(S(N)(=O)=O)n6)cc5)CC4C3)c21` (stereo not drawn) [Compound A339], the DC50 under setting [1] is below 100 nM. Besides, the Dmax under setting [2] is above 60%.
Molecule `Cn1c(=O)n(C2CCC(=O)NC2=O)c2cccc(N3CCC(CCN4CCN(c5ccc(-n6cc(NC(=O)c7cccc(C(F)(F)F)n7)c(C(N)=O)n6)cc5)CC4)C(F)(F)C3)c21` (stereo not drawn) [Compound A300] yielded a DC50 below 100 nM. Besides, the Dmax (THP-1) is above 60%.
As to `N#Cc1cccc(C(=O)Nc2cn(-c3ccc(N4CCN(CC5CCN(c6ccc(NC7CCC(=O)NC7=O)cc6F)CC5)CC4)cc3)nc2C(N)=O)n1` (stereo not drawn) [Compound A384, N-(3-Carbamoyl-1-(4-(4-((1-(4-((2,6-dioxopiperidin-3-yl)amino)-2-fluorophenyl)piperidin-4-yl)methyl)piperazin-1-yl)phenyl)-1H-pyrazol-4-yl)-6-cyanopicolinamide], under setting [1], the DC50 is above 1000 nM. In addition, under setting [2], the Dmax is below 40%.
